Results taken from ChEMBL document CHEMBL4813957, “Antitubercular properties of thiazolidin-4-ones - A review” (Eur J Med Chem, 2021).
Values after ≈ are worked out from the molar mass of the structure shown.

Legend:
[1] = tested on: Mycobacterium tuberculosis; assay: Antimycobacterial activity against Mycobacterium tuberculosis H37Ra; type: functional
[2] = tested on: Mycobacterium tuberculosis; assay: Antimycobacterial activity against Mycobacterium tuberculosis H37Rv ATCC 27294 incubated for 5 days by microplate alamar blue assay; type: functional; details: H37Rv ATCC 27294, 120 h, time 5 day
[3] = tested on: Mycobacterium tuberculosis; assay: Antimycobacterial activity against Mycobacterium tuberculosis H37Rv incubated for 7 days by microplate alamar blue assay; type: functional; details: 168 h, time 7 day
[4] = tested on: Mycobacterium tuberculosis; assay: Bactericidal activity against Mycobacterium tuberculosis H37Ra ATCC 25177 assessed as ratio of MBC to MIC; type: functional
[5] = Selectivity index, ratio of IC50 for African green monkey Vero cells to MIC for antitubercular activity against Mycobacterium tuberculosis H37Ra ATCC 25177; type: toxicity
[6] = tested on: Mycobacterium tuberculosis; assay: Antimycobacterial activity against Mycobacterium tuberculosis H37Ra ATCC 25177 incubated for 7 days by microplate alamar blue assay; type: functional; details: H37Ra ATCC 25177, 168 h, time 7 day
[7] = tested on: Mycobacterium tuberculosis; assay: Antimycobacterial activity against Mycobacterium tuberculosis H37Rv; type: functional
[8] = tested on: Mycobacterium tuberculosis; assay: Antimycobacterial activity against Mycobacterium tuberculosis H37Ra 7131 incubated for 21 days by broth dilution method; type: functional; details: H37Ra 7131, 504 h, time 21 day
[9] = tested on: Mycobacterium tuberculosis; assay: Antimycobacterial activity against Mycobacterium tuberculosis H37Rv assessed as bacterial inhibition at 25 ug/ml by microplate alamar blue assay relative to control; type: functional
[10] = tested on: Mycobacterium tuberculosis; assay: Antimycobacterial activity against Mycobacterium tuberculosis H37Ra ATCC 25177 measured on 8th to 12th day by XTT reduction menadione assay; type: functional; details: time 8-12 day
[11] = tested on: Mycobacterium tuberculosis; assay: Antimycobacterial activity against Mycobacterium tuberculosis H37Rv assessed as growth inhibition at 50 ug/ml by Lowenstein-Jensen method relative to control; type: functional; details: read-out: GI
[12] = tested on: Mycobacterium tuberculosis; assay: Antimycobacterial activity against Mycobacterium tuberculosis H37Rv measured after 14 days by test tube dilution technique; type: functional; details: 336 h, time 14 day
[13] = tested on: Mycobacterium tuberculosis; assay: Antimycobacterial activity against Mycobacterium tuberculosis H37Rv measured after 21 days by test tube dilution technique; type: functional; details: 504 h, time 21 day
[14] = tested on: Mycobacterium tuberculosis; assay: Antimycobacterial activity against Mycobacterium tuberculosis H37Rv ATCC27294 incubated for 7 days by microplate alamar blue assay; type: functional; details: H37Rv ATCC 27294, 168 h, time 7 day
[15] = tested on: Mycolicibacterium smegmatis; assay: Antimycobacterial activity against Mycobacterium smegmatis ATCC 35797 incubated for 48 hrs by agar dilution method; type: functional
[16] = tested on: Mycobacterium tuberculosis; assay: Antimycobacterial activity against Mycobacterium tuberculosis H37Rv assessed as growth inhibition at 6.25 ug/ml by microplate alamar blue assay relative to control; type: functional; details: read-out: GI
[17] = tested on: Mycobacterium tuberculosis; assay: Antimycobacterial activity against Mycobacterium tuberculosis H37Rv by Lowenstein-Jensen method relative to control; type: functional

Structure (SMILES): CCOC(=O)C(C(C)C)N1C(=O)C(C)SC1c1ccc2c(c1)c1ccccc1n2CC (centres undefined)
- MIC [1]: 25 µg/mL (≈ 57 µM)

Structure (SMILES): CCOC(=O)C(C(C)C)N1C(=O)C(C)SC1c1cccc(OC)c1O (centres undefined)
- MIC [1]: 25 µg/mL (≈ 68 µM)

Structure (SMILES): O=C(NN1C(=O)CSC1c1ccco1)c1ccncc1 (centres undefined)
- MIC [2]: 1.25 µg/mL (≈ 4.32 µM)

Structure (SMILES): COc1cc(C2SCC(=O)N2NC(=O)c2ccncc2)ccc1O (centres undefined)
- MIC [2]: 0.31 µg/mL (≈ 0.898 µM)

Structure (SMILES): COc1ccc(C2SCC(=O)N2c2n[nH]c(=S)s2)cc1 (centres undefined)
- MIC [3]: 6.25 µg/mL (≈ 19.2 µM)

Structure (SMILES): Cc1ccc(C2SCC(=O)N2c2n[nH]c(=S)s2)cc1 (centres undefined)
- MIC [3]: 12.5 µg/mL (≈ 40.4 µM)

Structure (SMILES): O=C1NC(=S)S/C1=C\c1ccccc1O
- MIC [1]: 95 µg/mL (≈ 400 µM)

Structure (SMILES): NC(=S)N/N=C/c1ccc(OC(=O)CC2SC(=O)NC2=O)cc1 (centres undefined)
- Ratio [4]: 2
- selectivity ratio [5]: > 10
- MIC [6]: 0.031 µg/mL (≈ 0.088 µM)

Structure (SMILES): COc1cc(-c2cc(-c3ccc(Cl)cc3)nc(NC(=O)NN3C(=O)CSC3c3ccccc3[N+](=O)[O-])n2)cc(OC)c1OC (centres undefined)
- MIC [7]: 100 µg/mL (≈ 157 µM)

Structure (SMILES): C=CC/N=C1\SC(=O)C(=O)N1NC(=O)c1ccncc1
- MIC [8]: 19.5 µg/mL (≈ 67.2 µM)

Structure (SMILES): CCCCCCCCCCCCN1C(=O)C(CC(=O)O)SC12CCN(C(=O)C(N)C(C)CC)CC2 (centres undefined)
- inhibition at 25 µg/mL [9]: 97%

Structure (SMILES): NC(=S)N/N=C/c1ccc(OC(=O)/C=C2\SC(=O)NC2=O)c(Cl)c1
- Ratio [4]: 2
- selectivity ratio [5]: > 10
- MIC [6]: 0.031 µg/mL (≈ 0.0806 µM)

Structure (SMILES): O=C1NC(=S)S/C1=C\c1c(O)ccc2ccccc12
- MIC [1]: 95 µg/mL (≈ 331 µM)

Structure (SMILES): O=C1/C(=C/c2ccc([N+](=O)[O-])cc2)SC(c2ccc([N+](=O)[O-])cc2)N1NCCNc1ncc([N+](=O)[O-])s1 (centres undefined)
- MIC [7]: 25 µg/mL (≈ 46 µM)

Structure (SMILES): Cc1cc(NS(=O)(=O)c2ccc(N3C(=O)CSC3c3c(F)cccc3F)cc2)no1 (centres undefined)
- IC90 [10]: 0.43 µg/mL (≈ 0.952 µM)

Structure (SMILES): O=C(NCCCN1c2ccccc2Sc2ccccc21)N1C(=O)/C(=C/c2ccc([N+](=O)[O-])cc2)SC1c1ccc([N+](=O)[O-])cc1 (centres undefined)
- inhibition of growth at 50 µg/mL [11]: 82%

Structure (SMILES): CCCCCCCCN1C(=O)CSC12CCCCC2
- inhibition at 25 µg/mL [9]: 96%

Structure (SMILES): O=C(COc1cnccn1)N/N=C1/SCC(=O)N1c1ccc(Cl)cc1Cl
- MIC [12]: > 100 µg/mL
- MIC [13]: > 100 µg/mL

Structure (SMILES): CCCCCCCCCCCCN1C(=O)C(CC(=O)O)SC12CCN(C(=O)C(N)CCCCN)CC2 (centres undefined)
- inhibition at 25 µg/mL [9]: 96%

Structure (SMILES): COc1cccc(C2SCC(=O)N2NC(=O)c2cc(O)c(O)c(O)c2)c1O (centres undefined)
- MIC [14]: 0.79 µg/mL (≈ 2.01 µM)

Structure (SMILES): O=C1CSC(c2ccc(O)cc2)N1c1nnc(S)s1 (centres undefined)
- MIC [3]: 12.5 µg/mL (≈ 40.1 µM)

Structure (SMILES): CCCCCCCCCCCCN1C(=O)C(CC(=O)O)SC12CCCCCCCC2 (centres undefined)
- inhibition at 25 µg/mL [9]: 96%

Structure (SMILES): COc1ccc(C2SCC(=O)N2NC(=O)c2ccncc2)cc1 (centres undefined)
- MIC [2]: 1.25 µg/mL (≈ 3.79 µM)

Structure (SMILES): CCC1SCC(=O)N1NC(=O)c1ccncc1 (centres undefined)
- MIC [15]: > 100 µg/mL

Structure (SMILES): O=C1CSC(c2ccc(Cl)cc2)N1NC(=O)C(O)(c1ccccc1)c1ccccc1 (centres undefined)
- inhibition of growth at 6.25 µg/mL [16]: 99%

Structure (SMILES): Cc1ccccc1/N=N/c1ccc(/C=C2\SC(=S)NC2=O)c(O)c1
- MIC [1]: 95 µg/mL (≈ 267 µM)

Structure (SMILES): CCCCCCCCCCC1SCC(=O)N1NC(=O)c1ccncc1 (centres undefined)
- MIC [15]: 25 µg/mL (≈ 68.8 µM)

Structure (SMILES): C/C(=N\N1C(=O)CSC1c1ccc(O)cc1)c1oc2ccc(Cl)cc2c1C (centres undefined)
- MIC [7]: 25 µg/mL (≈ 62.4 µM)

Structure (SMILES): CC1SC(c2ccc(C#N)cc2)N(NC(=O)C(O)(c2ccccc2)c2ccccc2)C1=O (centres undefined)
- inhibition of growth at 6.25 µg/mL [16]: 99%

Structure (SMILES): CN(C)c1ccc(C2SCC(=O)N2NC(=O)c2ccncc2)cc1 (centres undefined)
- MIC [2]: 5 µg/mL (≈ 14.6 µM)

Structure (SMILES): O=C(NN1C(=O)CSC1c1ccccc1O)c1cc(O)c(O)c(O)c1 (centres undefined)
- MIC [14]: 0.79 µg/mL (≈ 2.18 µM)

Structure (SMILES): O=C(NCCCNc1ncc([N+](=O)[O-])s1)N1C(=O)/C(=C/c2cccc([N+](=O)[O-])c2)SC1c1cccc([N+](=O)[O-])c1 (centres undefined)
- MIC [17]: 2.5 µg/mL (≈ 4.27 µM)

Structure (SMILES): O=C(COc1cnccn1)N/N=C1/SCC(=O)N1c1ccc(Cl)cc1[N+](=O)[O-]
- MIC [12]: 85 µg/mL (≈ 201 µM)
- MIC [13]: 89 µg/mL (≈ 210 µM)

Structure (SMILES): CC/N=C1\SC(=O)C(=O)N1NC(=O)c1ccncc1
- MIC [8]: 19.5 µg/mL (≈ 70.1 µM)

Structure (SMILES): O=C(NN1C(=O)CSC1c1ccccc1Cl)c1cc(O)c(O)c(O)c1 (centres undefined)
- MIC [14]: 0.79 µg/mL (≈ 2.07 µM)

Structure (SMILES): Cc1cc(NS(=O)(=O)c2ccc(N3C(=O)CSC3c3ccc(Cl)cc3)cc2)no1 (centres undefined)
- IC90 [10]: 0.43 µg/mL (≈ 0.956 µM)

Structure (SMILES): NC(=S)N/N=C/c1ccc(OC(=O)CC2SC(=O)NC2=O)c(Br)c1 (centres undefined)
- Ratio [4]: 2
- selectivity ratio [5]: > 10
- MIC [6]: 0.031 µg/mL (≈ 0.0719 µM)

Structure (SMILES): CC1SC(c2ccc(OCc3ccccc3)cc2)N(NC(=O)C(O)(c2ccccc2)c2ccccc2)C1=O (centres undefined)
- inhibition of growth at 6.25 µg/mL [16]: 98%

Structure (SMILES): N=C1S/C(=C\c2ccccc2)C(=O)N1NC(=O)c1ccncc1
- MIC [8]: 12 µg/mL (≈ 37 µM)

Structure (SMILES): CCCCCCCCCCCC1SCC(=O)N1NC(=O)c1ccncc1 (centres undefined)
- MIC [15]: 6 µg/mL (≈ 15.9 µM)

Structure (SMILES): Cc1cccc(/N=C2\SC(=O)C(=O)N2NC(=O)c2ccncc2)c1
- MIC [8]: 19.5 µg/mL (≈ 57.3 µM)
